Columns and labels:
Assay type in all cases: in vivo
[1] = tested on: rice leafroller (Cnaphalocrocis medinalis); assay: Insecticidal effect on rice leafroller (Test Example 3); conditions: 500 ppm, 25° C., humidity 70%; for Insecticidal effect on rice leafroller (Test Example 3), judged grade / Insecticidal effect (Test Example 3), judged from mortality: rice lamina dip; for Insecticidal effect on rice leafroller (Test Example 3), judged grade: third-instar larvae; for Insecticidal effect on rice leafroller (Test Example 3), judged grade / Insecticidal effect, Test Example 3: four days after inoculation; for Insecticidal effect, Test Example 3: rice lamina immersed; for Insecticidal effect (Test Example 3), judged from mortality: 4 days after inoculation
Procedure, shortened: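 Groups of 10 third-instar larvae, in triplicate, are placed on air-dried lamina resting on wet filter paper. Incubation runs four days at 25° C with 70% humidity before survivors and dead are tallied.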

[2] = tested on: diamondback moth (Plutella xylostella); assay: Insecticidal effect on diamondback moth (Test Example 1); conditions: for Insecticidal effect on diamondback moth (Test Example 1), judged grade: mortality judged according to the criterion shown in Test Example 1; for Insecticidal effect, Test Example 1 / Insecticidal effect (Test Example 1), judged from mortality: diamondback moth; for Insecticidal effect (Test Example 1), judged from mortality: judged by the criterion of Test Example 1
Procedure, shortened: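 Read-out was mortality from hatched-insect counts taken 6 days after the egg-bearing cabbage seedling was immersed, graded by set criteria. Seedlings were air-dried and kept at 25° C after treatment. Groups of 10 insects, in triplicate.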

[3] = tested on: common cutworm (Spodoptera Litura); assay: Insecticidal effect on common cutworm (Test Example 2); conditions: 500 ppm, 25° C.; for Insecticidal effect on common cutworm (Test Example 2), judged grade / Insecticidal effect (Test Example 2), judged from mortality: cabbage leaf dip; for Insecticidal effect on common cutworm (Test Example 2), judged grade: second-instar larvae; for Insecticidal effect on common cutworm (Test Example 2), judged grade / Insecticidal effect, Test Example 2: eight days after inoculation; for Insecticidal effect, Test Example 2: cabbage leaf immersed; for Insecticidal effect (Test Example 2), judged from mortality: 8 days after inoculation
Procedure, shortened: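 Air-dried treated material was placed in a closed dish with second-instar larvae and held at 25° C. Dead and live insects were counted eight days after inoculation, and mortality was calculated and scored against a fixed insecticidal-effect criterion. Three replicate groups of 10 insects were used.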

[4] = rice leafroller third-instar larvae
[5] = mortality judged by criterion of Test Example 1
[6] = common cutworm second-instar larvae
[7] = third-instar larvae of rice leafroller
[8] = judged by the mortality criterion of Test Example 1
[9] = second-instar larvae of common cutworm

Cc1cc(Cl)ccc1NC(=O)c1cccc(Cl)c1C(=O)NC(C)(C)C [compound 937]
Insecticidal effect on rice leafroller (Test Example 3), judged grade [1]: A (100) | Insecticidal effect on diamondback moth (Test Example 1), judged grade [2]: A (100) | Insecticidal effect on common cutworm (Test Example 2), judged grade [3]: A (100)

Cc1cc(C(F)(F)C(F)(F)F)ccc1NC(=O)c1cccc(I)c1C(=O)NCc1ccccc1 [compound 1400]
Insecticidal effect, Test Example 3 [1, 4]: A (100) | Insecticidal effect, Test Example 1 [2, 5]: A (100) | Insecticidal effect, Test Example 2 [3, 6]: A (100)

Cc1cc(C(F)(C(F)(F)F)C(F)(F)F)ccc1NC(=O)c1ccc(F)c(Cl)c1C(=O)NC(C)C [compound 1229]
Insecticidal effect, Test Example 3 [1, 4]: A (100) | Insecticidal effect, Test Example 1 [2, 5]: A (100) | Insecticidal effect, Test Example 2 [3, 6]: A (100)

Cc1cc(C(F)(F)C(F)(F)C(F)(F)F)ccc1NC(=O)c1cccc(Br)c1C(=O)NC(C)C [compound 279]
Insecticidal effect, Test Example 3 [1, 7]: A (100) | Insecticidal effect, Test Example 1 [2, 8]: A (100) | Insecticidal effect, Test Example 2 [3, 9]: A (100)

COCC(C)NC(=O)c1c(C(=O)Nc2ccc(OC(F)F)cc2C)cccc1[N+](=O)[O-] (stereo not drawn) [compound 874]
Insecticidal effect on rice leafroller (Test Example 3), judged grade [1]: A (100) | Insecticidal effect on diamondback moth (Test Example 1), judged grade [2]: A (100) | Insecticidal effect on common cutworm (Test Example 2), judged grade [3]: C (89-80)

CC(C)NC(=O)c1ccccc1C(=O)Nc1ccc(OC(F)F)cc1C(F)(F)F [compound 83]
Insecticidal effect, Test Example 3 [1, 7]: A (100) | Insecticidal effect, Test Example 1 [2, 8]: A (100) | Insecticidal effect, Test Example 2 [3, 9]: A (100)

Cc1cc(C#N)ccc1NC(=O)c1cccc(Cl)c1C(=O)NC(C)C [compound 1330]
Insecticidal effect, Test Example 3 [1, 4]: A (100) | Insecticidal effect, Test Example 1 [2, 5]: A (100) | Insecticidal effect, Test Example 2 [3, 6]: A (100)

Cc1cc(C(F)(F)C(F)(F)F)ccc1NC(=O)c1cccc(I)c1C(=O)N[C@@H](C)CO [compound 1482]
Insecticidal effect (Test Example 3), judged from mortality [1, 7]: A (100) | Insecticidal effect (Test Example 1), judged from mortality [2]: A (100) | Insecticidal effect (Test Example 2), judged from mortality [3, 9]: A (100)

CC(C)NC(=O)c1ccccc1C(=O)Nc1ccc(OC(F)(F)F)cc1Br [compound 48]
Insecticidal effect, Test Example 3 [1, 7]: A (100) | Insecticidal effect, Test Example 1 [2, 8]: A (100) | Insecticidal effect, Test Example 2 [3, 9]: B (99-90)

Cc1cc(OC(F)(F)Br)ccc1NC(=O)c1c(I)cccc1C(=O)NC(C)C [compound 452]
Insecticidal effect on rice leafroller (Test Example 3), judged grade [1]: A (100) | Insecticidal effect on diamondback moth (Test Example 1), judged grade [2]: A (100) | Insecticidal effect on common cutworm (Test Example 2), judged grade [3]: A (100)

CC(C)NC(=O)c1cccc(Cl)c1C(=O)Nc1ccc(OC(F)F)cc1C(F)(F)F [compound 253]
Insecticidal effect, Test Example 3 [1, 7]: C (89-80) | Insecticidal effect, Test Example 1 [2, 8]: A (100) | Insecticidal effect, Test Example 2 [3, 9]: A (100)

CCC(C)NC(=O)c1c(C(=O)Nc2cc(Cl)ccc2C)cccc1[N+](=O)[O-] (stereo not drawn) [compound 838]
Insecticidal effect on rice leafroller (Test Example 3), judged grade [1]: A (100) | Insecticidal effect on diamondback moth (Test Example 1), judged grade [2]: A (100) | Insecticidal effect on common cutworm (Test Example 2), judged grade [3]: C (89-80)

Cc1c(Cl)cccc1NC(=O)c1cccc(I)c1C(=O)NC(C)C [compound 361]
Insecticidal effect, Test Example 3 [1, 7]: A (100) | Insecticidal effect, Test Example 1 [2, 8]: A (100) | Insecticidal effect, Test Example 2 [3, 9]: A (100)

CCC(C)NC(=O)c1c(Cl)cccc1C(=O)Nc1ccc(C(F)(F)C(F)(F)C(F)(F)F)cc1F (stereo not drawn) [compound 1500]
Insecticidal effect (Test Example 3), judged from mortality [1, 7]: A (100) | Insecticidal effect (Test Example 1), judged from mortality [2]: A (100) | Insecticidal effect (Test Example 2), judged from mortality [3, 9]: A (100)

Cc1cc(OCC(F)(F)C(F)F)ccc1NC(=O)c1c(I)cccc1C(=O)NC(C)C [compound 447]
Insecticidal effect on rice leafroller (Test Example 3), judged grade [1]: C (89-80) | Insecticidal effect on diamondback moth (Test Example 1), judged grade [2]: A (100) | Insecticidal effect on common cutworm (Test Example 2), judged grade [3]: B (99-90)

CCN(CC)C(=O)c1c(F)cccc1C(=O)Nc1ccc(C(F)(F)C(F)(F)F)cc1C [compound 1525]
Insecticidal effect (Test Example 3), judged from mortality [1, 7]: A (100) | Insecticidal effect (Test Example 1), judged from mortality [2]: A (100) | Insecticidal effect (Test Example 2), judged from mortality [3, 9]: A (100)

Cc1ccccc1CNC(=O)c1c(I)cccc1C(=O)Nc1ccc(C(F)(F)C(F)(F)F)cc1C [compound 1404]
Insecticidal effect, Test Example 3 [1, 4]: A (100) | Insecticidal effect, Test Example 1 [2, 5]: A (100) | Insecticidal effect, Test Example 2 [3, 6]: C (89-80)

Cc1cc(OC(F)(F)C(F)C(F)(F)F)ccc1NC(=O)c1cccc(I)c1C(=O)NC(C)C (stereo not drawn) [compound 393]
Insecticidal effect, Test Example 3 [1, 7]: A (100) | Insecticidal effect, Test Example 1 [2, 8]: A (100) | Insecticidal effect, Test Example 2 [3, 9]: A (100)

Cc1cc(Cl)ccc1NC(=O)c1ccc(Br)c(Br)c1C(=O)NC(C)C [compound 339]
Insecticidal effect, Test Example 3 [1, 7]: A (100) | Insecticidal effect, Test Example 1 [2, 8]: A (100) | Insecticidal effect, Test Example 2 [3, 9]: B (99-90)

— patent US6362369B1, “Phthalic acid diamide derivatives fluorine-containing aniline compounds as starting material, agricultural and horticultural insecticides, and a method for application of the insecticides” (Nihon Nohyaku Co., Ltd., priority 1997, dated 2002)
